Reference: US20170165363A1, “CANCER CELL MIGRATION INHIBITORS AND THEIR USE IN THERAPEUTIC TREATMENTS” (THE JOHNS HOPKINS UNIVERSITY, priority 2015, published 2017)

System: human fibrosarcoma HT1080 cells
Test: Velocity of matrix-embedded cells in 3D collagen I matrix (live-cell tracking)
Format: cell-based
Settings: for cell velocity: human fibrosarcoma cells embedded in a 3D matrix at LD (ρ=10) and HD (ρ=50), compared to cells exposed to fresh medium (0); for cell-density-dependent migration: matrix-embedded cells at low and high cell densities; for cell velocity / cell migration on addition of recombinant cytokine: HT1080 seeded at low density (10 cells/mm^3), combination at the precise concentrations found at 50 cells/mm^3, ratio 5:2
Experimental: HT1080 cells were embedded in 2mg/ml type I collagen gel as described previously by Fraley et al^20. Briefly, cell suspensions containing 5000 to 75,000 cells in 1:1 (v/v) ratio of cell culture media and reconstitution buffer were mixed with appropriate volume of soluble rat-tail collagen I (Corning Inc.) to obtain a final collagen I concentration of 2 mg/ml. A calculated amount of 1M NaOH was added quickly and the final solution was mixed well to bring the pH to ˜7. The cell suspensions was added to a 24-well coverslip-bottom cell-culture dish and immediately transferred to an incubator maintained at 36° C. to allow polymerization. Fresh medium was added 1 h before imaging. MDA MB 231 and U-87 cells were embedded in 1 mg/ml type I collagen matrix
Phase-contrast images of matrix-embedded cells were recorded 2 min apart for 16.5 h using a Cascade 1K CCD camera (Roper Scientific) mounted on a Nikon TE2000 microscope with a 10× objective lens. Single cells were tracked using Metamorph imaging software. A custom MATLAB program calculated the velocity for each cell using the x- and y-coordinates obtained from tracking data using the following equation: […]
Recombinant IL-6 and IL-8 (R&D systems) reconstituted in DPBS (Life technologies) were added to matrix embedded cells with a cell density of 10 cells/mm^3 and imaged as described above (See velocity and protrusion topology of matrix embedded cells). Matrix embedded cells with cell densities of 10 cells/mm^3 and 50 cells/mm^3 were exposed to specific IL-6 and IL-8 functional antibodies (Proteintech) at a concentration of 0.5 μg/mL. Matrix embedded cells with cell densities of 10 cells/mm^3 and 50 cells/mm^3 were exposed to Tocilizumab (Roche) and Reparixin (Dompe pharmaceuticals) STAT3 and WASF3 activity
Matrix embedded with cell densities of 10 cells/mm^3 and 50 cells/mm^3 were exposed to JAK2 inhibitor, AG-490 (Santa Cruz Biotechnology), STAT3 inhibitor, S31-201, (Santa Cruz Biotechnology) and ARP 2/3 complex inhibitor, CK 666, (Sigma-Aldrich) for 1 h before cells were imaged as described above. (See velocity and protrusion topology of matrix embedded cells)

Molecule | cell velocity | cell-density-dependent migration | other results
Cc1[nH]c2ccccc2c1CCNC(=O)c1ccccc1F [CK666] | Decreased cell velocity | prevented cell-density-dependent migration | –
Cc1ccc(S(=O)(=O)OCC(=O)Nc2ccc(C(=O)O)c(O)c2)cc1 [S3I-201] | Decreased cell velocity | prevented cell-density-dependent migration | –
CC(C)Cc1ccc([C@@H](C)C(=O)NS(C)(=O)=O)cc1 [Reparixin, (2R)-2-[4-(2-methylpropyl)phenyl]-N-methylsulfonylpropanamide] | decreased cell velocity | – | –
recombinant IL-8: human recombinant IL-8 (R&D systems) | – | – | cell velocity / cell migration on addition of recombinant cytokine: do not increase cell velocity; cell velocity / cell migration on addition of recombinant cytokine (listed as IL-8): no effect on cell migration
N#C/C(=C/c1ccc(O)c(O)c1)C(=O)NCc1ccccc1 [AG-490] | Decreased cell velocity | prevented cell-density-dependent migration | –
recombinant IL-6: human recombinant IL-6 (R&D systems) | – | – | cell velocity / cell migration on addition of recombinant cytokine: do not increase cell velocity; cell velocity / cell migration on addition of recombinant cytokine (listed as IL-6): no effect on cell migration
Tocilizumab: a recombinant humanized, anti-human IL-6 receptor monoclonal antibody currently used in the treatment of Rheumatoid Arthritis | decreased cell velocity | – | –
